From patent US4684639A, “Antibacterial penicillins and cephalosporins” (Beecham Group, priority 1983, dated 1987)
Where a name gives a salt, the structure may show the parent alone.

Experiments:
Assay type in all cases: cell-based
Klebsiella aerogenes A = test: MIC against Klebsiella aerogenes A
Description: (§1) The antibiotic compounds of the present invention are active against a wide range of gram negative and gram positive organisms including E. coli such as, for example ESS, JT4, JT425 and NCTC 10418; Pseudomonas Spp. such as Ps.aeruginosa for example 10622 and Dalgleish; Serratia marcescens US32; Klebsiella aerogenes A; Enterobacter cloacae N1; P.mirabilis such as, for example C977 and 889; P.morganii, P.rettgeri; B.subtilis; Staph. aureus such as, for example Oxford and Russell; N.catarrhalis 1502; Strep faecalis I; β-Haemolytic Strep CN10. The MIC data included in the following examples is representative of the activity of the compounds of the present invention.

Proteus mirabilis 889 = test: MIC against Proteus mirabilis 889
Description: as §1

P. mirabilis 899 = test: MIC against P. mirabilis 899; conditions: Proteus mirabilis
Description: as §1

Row | Structure (SMILES) | MIC (Klebsiella aerogenes A) [µg/mL] | MIC (Proteus mirabilis 889) [µg/mL] | also measured
1 | CCN1CCN(C(=O)NC(C(=O)N[C@@H]2C(=O)N3[C@@H]2SC(C)(C)[C@@H]3C(=O)O)c2cc(O)c(O)cc2Cl)C(=O)C1=O (stereo partly drawn) [Example 1, Sodium 6,β-[D,L-2-(2-chloro-4,5-dihydroxyphenyl)-2-(2,3-dioxo-4-ethylpiperazin-1-ylcarbonylamino)acetamido penicillanate] | < 0.06 | – | –
2 | CCN1CCN(C(=O)NC(C(=O)N[C@@H]2C(=O)N3[C@@H](C(=O)O)CS[C@H]23)c2cc(OC(C)=O)c(OC(C)=O)cc2Cl)C(=O)C1=O (stereo partly drawn) [Example 2, Sodium 6,β[D,L-2-(2-chloro-4,5-diacetoxyphenyl)-2-(2,3-dioxo-4-ethylpiperazin-1-ylcarbonylamino)acetamido]bisnorpeniclllanate] | < 0.06 | – | –
3 | CCN1CCN(C(=O)NC(C(=O)N[C@]2(OC)C(=O)N3[C@@H](C(=O)O)C(C)(C)S[C@@H]32)c2cc(OC(C)=O)c(OC(C)=O)cc2Cl)C(=O)C1=O (stereo partly drawn) [Example 4, Sodium 6,β-[D,L-2-(2-chloro-4,5-diacetoxyphenyl)-2-(2,3-dioxo-4-ethylpiperazin-1-ylcarbonylamino)acetamido]-6,α-methoxypenicillanate] | – | 4 | –
4 | CCN1CCN(C(=O)NC(C(=O)N[C@]2(NC=O)C(=O)N3[C@@H](C(=O)O)C(C)(C)S[C@@H]32)c2cc(OC(C)=O)c(OC(C)=O)cc2Cl)C(=O)C1=O (stereo partly drawn) [Example 5, Sodium 6,β-[D,L-2-(2-chloro-4,5-diacetoxyphenyl)-2-(2,3-dioxo-4-ethylpiperazin-1-ylcarbonylamino)acetamido]-6,α-formamidopenicillanate] | – | < 0.06 | –
5 | CCN1CCN(C(=O)N[C@@H](C(=O)N[C@]2(NC=O)C(=O)N3[C@@H](C(=O)O)C(C)(C)S[C@@H]32)c2cc(OC(C)=O)c(OC(C)=O)cc2Cl)C(=O)C1=O [Example 6] | – | < 0.06 | –
6 | CCN1CCN(C(=O)NC(C(=O)N[C@@H]2C(=O)N3[C@@H]2SC(C)(C)[C@@H]3C(=O)O)c2cc(OC(C)=O)c(OC(C)=O)cc2F)C(=O)C1=O (stereo partly drawn) [Example 7, Sodium 6,β-[D,L-2-(4,5-diacetoxy-2-fluorophenyl)-2-(2,3-dioxo-4-ethylpiperazin-1-ylcarbonylamino)acetamido]penicillanate] | 0.5 | – | –
7 | CCN1CCN(C(=O)N[C@@H](C(=O)N[C@]2(NC=O)C(=O)N3[C@@H](C(=O)O)C(C)(C)S[C@@H]32)c2cc(OC(C)=O)c(OC(C)=O)cc2F)C(=O)C1=O [Example 8, Sodium 6,β-[D-2-(4,5-diacetoxy-2-fluorophenyl)-2-(2,3-dioxo-4-ethylpiperazin-1-ylcarbonylamino)acetamido]-6,α-formamidopenicillanate] | – | < 0.06 | –
8 | CCN1CCN(C(=O)N[C@@H](C(=O)N[C@@H]2C(=O)N3[C@@H]2SC(C)(C)[C@@H]3C(=O)O)c2cc(OC(C)=O)c(OC(C)=O)cc2Cl)C(=O)C1=O [Example 9, Sodium 6,β-[D-2-(2-chloro-4,5-diacetoxyphenyl)-2-(2,3-dioxo-4-ethylpiperazin-1-ylcarbonylamino)acetamido]penicillanate] | 0.25 | – | –
9 | CCN1CCN(C(=O)NC(C(=O)N[C@@H]2C(=O)N3[C@@H]2SC(C)(C)[C@@H]3C(=O)O)c2cc(OC(C)=O)c(OC(C)=O)cc2Br)C(=O)C1=O (stereo partly drawn) [Example 10, Sodium 6,β-[D,L-2-(2-bromo-4,5-diacetoxyphenyl)-2-(2,3-dioxo-4-ethylpiperazin-1-ylcarbonylamino)acetamido]penicillanate] | 1 | – | –
10 | CCN1CCN(C(=O)N[C@@H](C(=O)N[C@@H]2C(=O)N3[C@@H]2SC(C)(C)[C@@H]3C(=O)O)c2cc(O)c(O)cc2F)C(=O)C1=O [Example 11, Sodium 6,β-[D-2-(4,5-dihydroxy-2-fluorophenyl)-2-(2,3-dioxo-4-ethylpiperazin-1-ylcarbonylamino)acetamido]penicillanate] | 1 | – | –
11 | CCN1CCN(C(=O)N[C@@H](C(=O)N[C@]2(NC=O)C(=O)N3C(C(=O)O)=C(COC(C)=O)CS[C@@H]32)c2cc(OC(C)=O)c(OC(C)=O)cc2Br)C(=O)C1=O [Example 13, 7β[D-2-(2-Bromo-4,5-diacetoxyphenyl)-2-[(4-ethyl-2,3-dioxopiperazin-1-yl)carbonylamino]acetamido]-7α-formamidocephalosporanate, sodium salt] | – | – | MIC (P. mirabilis 899): 0.25 µg/mL
12 | CCN1CCN(C(=O)N[C@@H](C(=O)N[C@]2(NC=O)C(=O)N3C(C(=O)O)=C(COC(C)=O)CS[C@@H]32)c2cc(OC(C)=O)c(OC(C)=O)cc2Cl)C(=O)C1=O [Example 14, 7β-[D-2-(2-chloro-4,5-diacetoxyphenyl)-2-[(4-ethyl-2,3-dioxopiperazin-1-yl)carbonylamino]acetamido]-7α-formamidocephalosporanate, sodium salt] | – | < 0.06 | –
13 | CCN1CCN(C(=O)N[C@@H](C(=O)N[C@]2(NC=O)C(=O)N3C(C(=O)O)=C(CSc4nnnn4C)CS[C@@H]32)c2cc(OC(C)=O)c(OC(C)=O)cc2Cl)C(=O)C1=O [Example 15, 7β-[D-2-(2-Chloro-4,5-diacetoxyphenyl)-2-[(4-ethyl-2,3-dioxopiperazin-1-yl)carbonylamino]acetamido]-7α-formamido-3-[(1-methyl-1H-tetrazol-5-yl)thiomethyl]ceph-3-em-4-carboxylic acid, sodium salt] | – | 0.06 | –
14 | CCN1CCN(C(=O)N[C@@H](C(=O)N[C@]2(NC=O)C(=O)N3[C@@H](C(=O)O)C(C)(C)S[C@@H]32)c2cc(O)c(O)cc2F)C(=O)C1=O [Example 16, Sodium 6,β-[D-2-(4,5-dihydroxy-2-fluorophenyl)-2-(2,3-dioxo-4-ethylpiperazin-1-ylcarbonylamino)acetamido]-6,α-formamidopenicillanate] | – | 0.25 | –
15 | CCN1CCN(C(=O)N[C@@H](C(=O)N[C@]2(NC=O)C(=O)N3C(C(=O)O)=C(COC(C)=O)CS[C@@H]32)c2cc(OC(C)=O)c(OC(C)=O)cc2F)C(=O)C1=O [Example 17, 7β[D-2-(4,5-Diacetoxy-2-fluorophenyl)-2-[(4-ethyl-2,3-dioxopiperazin-1-yl)carbonylamino]acetamido]-7α-formamidocephalosporanate, sodium salt] | – | – | MIC (P. mirabilis 899): 0.5 µg/mL
